“Also recorded” adds a separate entry of the source.
Test system: pure and enrichment cultures
Experiment: Toxicity experiments: effect of PFAS on biomass over a 14-day incubation
Assay type: cell-based, Acidimicrobiaceae sp. A6 / Terrimonas sp. A8
Settings: for toxicity / effects on the overall bacterial numbers: 1 ppb, 10 ppb, 100 ppb and 1 ppm, 14 days incubation, pure and enrichment cultures; for biomass growth: 1 ppm, pure culture incubations, 14 days
Procedure: Toxicity experiments were conducted for both pure and enrichment cultures with selected PFAS Compounds. The concentrations to test were 1 ppb, 10 ppb, 100 ppb and 1 ppm. During 14 days incubation, no toxicity of Heptafluorobutyric acid (HFBA), Perfluorooctanoic acid (PFOA) was evidenced by cultures with these concentrations.
All Incubations were conducted in 20-ml serum vials with a pure strain A6 (Acidimicrobiaceae sp.)/A8 (Terrimonas sp.) or an enrichment culture, which contained 40.1-48.5% of Acidimicrobiaceae sp. A6, and in the anoxic inorganic Fe(III)-NH4^+ enrichment medium. The composition of the inorganic Fe(III)-NH4^+ enrichment medium (pH 4.5-5.0) consisted of 504 mg/L 2-line ferrihydrite [Fe2O3·0.5H2O], 177 mg/l NH4Cl, 77.9 mg/L (NH4)2SO4, 19.8 mg/L NaHCO3, 71.0 mg/L KHCO3, 9.00 mg/L KH2PO4, 100 mg/L MgSO4·7H2O, and 60.0 mg/L CaCl2·2H2O, in addition to 1 ml/L of a trace element solution, and 1 ml/L of a vitamin solution (ATCC® MD-VS™). An electron shuttling compound, 9,10-Anthraquinone-2,7-disulphonic acid (AQDS), was added to the pure strain A6 with a final concentration as 0.05 mg/L. To achieve strictly anoxic conditions, the headspace of each incubation vial was vacuumed until no bubble formation was observed and then flushed with a N2/CO2 (80:20) gas mixture, which was repeated 3 times. Then, for the PFAS degradation experiment, an equal volume of either HFBA, PFOA and PFBS was added to each group of vials, to yield final concentrations to 100 ppb. In the control group, autoclave control, without PFASs and without addition of NH4^+ were prepared. All These vials were placed on a shaker (100 rpm) in an anaerobic glove box for 14-day incubations at ambient temperature. Duplicate samples were collected destructively every week for Fe(II), NH4^+, and HFBA/PFOA/PFBS analyses.
Toxicity experiments, in terms of how each of these PFAS affects the biomass over a 14-day incubation, were conducted for both pure and enrichment cultures. The concentrations tested were 1 ppb, 10 ppb, 100 ppb and 1 ppm. During 14 days of incubation, no effects by Heptafluorobutyric acid (HFBA) and Perfluorooctanoic acid (PFOA) on the overall bacterial numbers were detected for these concentrations. However, the biomass growth was inhibited when the concentration of 2,2,2-Trifluoroethyl Nonafluorobutanesulfonate was 1 ppm in the incubation with the pure culture.

Row | SMILES | toxicity / effects on the overall bacterial numbers | biomass growth | biomass growth (listed as 2,2,2-Trifluoroethyl Nonafluorobutanesulfonate)
1 | O=C(O)C(F)(F)C(F)(F)C(F)(F)F [HFBA, Heptafluorobutyric acid] | no toxicity; also recorded: no effects |  | 
2 | O=S(=O)(OCC(F)(F)F)C(F)(F)C(F)(F)C(F)(F)C(F)(F)F [PFBS, 2,2,2-Trifluoroethyl Nonafluorobutanesulfonate] |  | slightly inhibited | inhibited
3 | O=C(O)C(F)(F)C(F)(F)C(F)(F)C(F)(F)C(F)(F)C(F)(F)C(F)(F)F [PFOA, Perfluorooctanoic acid] | no toxicity; also recorded: no effects |  | 

— patent US12252423B2, “Biodegradation of fluorochemicals” (The Trustees of Princeton University, priority 2018, dated 2025)
